Measurements taken from patent US20070092474A1, “Carnitine salt, preliposome which contains it and dermocosmetic formula for topical use based upon said carnitine salt” (priority 2003, published 2007).
Several values for one entry are separate records, joined by “and”; a condition that tells them apart may be missing. Identical values can stand only once.

System: skin blemishes caused by cellulite and localised adiposity
Assay: Plicometry: skin plica thickness measured with a plicometer, dermatological test of the cosmetic gel
Assay type: in vivo, female volunteers
Design: RIGHT PLICOMETRY 1/3 T0 / RIGHT PLICOMETRY 3/3 T15 / RIGHT PLICOMETRY 3/3 T30 / RIGHT PLICOMETRY 3/3 T60 / RIGHT PLICOMETRY 1/3 T15 / RIGHT PLICOMETRY 1/3 T30 / RIGHT PLICOMETRY 1/3 T60 / RIGHT PLICOMETRY 2/3 T0 / RIGHT PLICOMETRY 2/3 T15 / RIGHT PLICOMETRY 2/3 T30 / RIGHT PLICOMETRY 2/3 T60 / RIGHT PLICOMETRY 3/3 T0 / LEFT PLICOMETRY 1/3 T0 / LEFT PLICOMETRY 3/3 T15 / LEFT PLICOMETRY 3/3 T30 / LEFT PLICOMETRY 3/3 T60 / LEFT PLICOMETRY 1/3 T30 / LEFT PLICOMETRY 1/3 T60 / LEFT PLICOMETRY 2/3 T0 / LEFT PLICOMETRY 2/3 T15 / LEFT PLICOMETRY 2/3 T30 / LEFT PLICOMETRY 2/3 T60 / LEFT PLICOMETRY 3/3 T0: unit not given beside the values
Procedure: A dermatological test was carried out on 25 female volunteers between 18 and 65 years of age, with the backing of the Department of Physiological and Pharmacological Sciences of the university of Pavia. The investigation aimed to check the modification of three anatomical-physiological parameters, qualifying the unaesthetic-functional aspect connected to the manifestation of so-called cellulite and subcutaneous hypertriglyceridaemia: measurement of the skin folds, measurement of the circumference of the thighs, thermographic skin measurement.
The test stretched out over 60 days with the continual daily application of the aforementioned preparation of cosmetic gel. The measurements were carried out after 15, 30 and 60 days. The detail of the test protocol and of the results obtained is shown hereafter.
25 female volunteers aged between 18 and 65, with the presence of skin blemishes caused by cellulite and localised adiposity, were selected according to the following criteria: good general state of health, absence of skin pathologies, not being under medication, commitment not to vary the normal daily routine, no medical history of atopy.
The samples were tested by uniformly applying them on “Glute SX Glute DJ (Femoris Posto SX Femoris Posto DX Femoris Ant. SX Femoris Ant. DX” every day at least once per day for the entire duration of the test.
At the time of inclusion in the study and during the subsequent checks after 15 days (T15), after 30 days (T30) and after 60 days (T60) of treatment the following instrumental measurements were taken: • plicometry (through a plicometer) • thigh circumference (through a measuring tape broken into millimetres) • contact thermography (through liquid crystal thermographic plates).
In particular, the plicometer used in the test constitutes the suitable instrument for measuring the skin plica thickness. Skin plicometry provides numerical data of particular use when the panniculopathic process of the cellulite is associated with localised adiposity.

[1] = MEDIA of 25 volunteers, T0 at inclusion, before treatment
[2] = MEDIA of 25 volunteers, after 15 days of daily gel application
[3] = MEDIA of 25 volunteers, after 30 days of daily gel application
[4] = MEDIA of 25 volunteers, after 60 days of daily gel application
[5] = individual volunteer, T0 at inclusion, before treatment
[6] = individual volunteer, after 15 days of daily gel application
[7] = individual volunteer, after 30 days of daily gel application
[8] = individual volunteer, after 60 days of daily gel application

Substance: carnitine hydroxycitrate [carnitine hydroxy citrate]
- LEFT PLICOMETRY 1/3 T0, MEDIA [1]: 25.7
- LEFT PLICOMETRY 2/3 T0, MEDIA [1]: 29.6
- LEFT PLICOMETRY 3/3 T0, MEDIA [1]: 31.2
- RIGHT PLICOMETRY 1/3 T0, MEDIA [1]: 25.7
- RIGHT PLICOMETRY 2/3 T0, MEDIA [1]: 30.9
- RIGHT PLICOMETRY 3/3 T0, MEDIA [1]: 33.0
- LEFT PLICOMETRY 1/3 T15, MEDIA [2]: 25.3
- LEFT PLICOMETRY 2/3 T15, MEDIA [2]: 28.9
- LEFT PLICOMETRY 3/3 T15, MEDIA [2]: 30.6
- RIGHT PLICOMETRY 1/3 T15, MEDIA [2]: 24.4
- RIGHT PLICOMETRY 2/3 T15, MEDIA [2]: 29.6
- RIGHT PLICOMETRY 3/3 T15, MEDIA [2]: 32.3
- LEFT PLICOMETRY 1/3 T30, MEDIA [3]: 23.5
- LEFT PLICOMETRY 2/3 T30, MEDIA [3]: 27.3
- LEFT PLICOMETRY 3/3 T30, MEDIA [3]: 29.1
- RIGHT PLICOMETRY 1/3 T30, MEDIA [3]: 23.4
- RIGHT PLICOMETRY 2/3 T30, MEDIA [3]: 28.3
- RIGHT PLICOMETRY 3/3 T30, MEDIA [3]: 30.9
- LEFT PLICOMETRY 1/3 T60, MEDIA [4]: 22.5
- LEFT PLICOMETRY 2/3 T60, MEDIA [4]: 26.6
- LEFT PLICOMETRY 3/3 T60, MEDIA [4]: 28.2
- RIGHT PLICOMETRY 1/3 T60, MEDIA [4]: 22.7
- RIGHT PLICOMETRY 2/3 T60, MEDIA [4]: 27.7
- RIGHT PLICOMETRY 3/3 T60, MEDIA [4]: 29.9
- LEFT PLICOMETRY 1/3 T0 [5]: 23.3 and 17.8 and 35.9 and 24.9 (2×) and 21.1 and 25.9 and 19.8 and 26.7 and 26.0 and 31.1 and 26.6 and 19.7 and 22.9 (2×) and 24.6 and 32.8 and 28.1 and 24.0 and 30.8 and 27.9 and 22.8 and 34.6 and 16.8 and 30.5
- LEFT PLICOMETRY 2/3 T0 [5]: 28.7 and 22.6 and 38.8 and 24.8 and 27.1 and 28.9 and 28.1 and 40.9 and 33.9 and 30.8 and 27.6 and 24.3 and 27.8 and 20.6 and 31.8 and 29.9 and 22.9 and 27.2 and 25.4 and 35.4 and 39.7 and 25.3 and 41.6 and 23.5 and 32.5
- LEFT PLICOMETRY 3/3 T0 [5]: 34.9 and 21.8 and 37.9 and 27.8 and 30.8 and 33.3 and 26.8 and 41.6 and 28.1 and 35.9 (2×) and 35.3 and 20.6 and 33.5 (2×) and 20.1 and 20.3 and 37.2 and 17.8 and 34.1 and 41.5 and 22.9 and 40.9 and 28.9 and 38.1
- RIGHT PLICOMETRY 1/3 T0 [5]: 30.5 and 23.3 and 17.8 and 35.9 and 24.9 (2×) and 21.1 and 25.9 and 19.8 and 26.7 and 26.0 and 31.1 and 26.6 and 19.7 and 22.9 (2×) and 24.6 and 32.8 and 28.1 and 24.0 and 30.8 and 27.9 and 22.8 and 34.6 and 16.8
- RIGHT PLICOMETRY 2/3 T0 [5]: 37.2 and 30.8 and 26.7 and 32.8 and 20.9 and 29.2 and 36.8 and 26.3 and 34.9 and 35.5 and 33.5 and 29.7 and 24.8 and 29.9 and 22.4 and 31.2 and 33.7 and 27.7 and 26.8 and 25.3 and 37.8 and 41.5 and 28.8 and 39.8 and 27.0
- RIGHT PLICOMETRY 3/3 T0 [5]: 40.1 and 41.6 and 25.9 and 32.7 and 29.9 (2×) and 33.8 and 37.1 and 39.8 and 40.6 and 37.7 and 36.8 (2×) and 28.8 and 29.4 and 25.6 and 32.3 and 39.9 and 22.3 and 19.8 and 35.1 and 42.6 and 22.9 and 36.2 and 26.8
- LEFT PLICOMETRY 1/3 T15 [6]: 22.6 (3×) and 17.1 and 35.2 and 24.2 (2×) and 20.4 and 25.2 and 19.1 and 26.0 and 25.3 and 30.4 and 27.2 and 19.6 and 23.9 and 32.9 and 27.4 and 24.6 and 30.6 and 27.8 and 22.8 and 33.9 and 16.1 and 29.8
- LEFT PLICOMETRY 2/3 T15 [6]: 28.0 and 21.9 and 38.1 and 24.1 and 26.4 and 28.2 and 27.4 and 40.2 and 33.2 and 30.1 and 26.9 and 23.6 and 27.1 and 19.9 and 31.1 and 29.2 and 22.2 and 26.5 and 24.7 and 34.7 and 39.0 and 24.6 and 40.9 and 22.8 and 31.8
- LEFT PLICOMETRY 3/3 T15 [6]: 34.3 and 21.2 and 37.3 and 27.2 and 30.2 and 32.7 and 26.2 and 41.0 and 27.5 and 35.3 (2×) and 34.7 and 20.0 and 32.9 (2×) and 19.5 and 19.7 and 36.6 and 17.2 and 33.5 and 40.9 and 22.3 and 40.3 and 28.3 and 37.5
- RIGHT PLICOMETRY 1/3 T15 [6]: 29.0 and 22.0 and 16.5 and 34.5 and 23.5 (2×) and 19.6 and 24.5 and 18.4 and 25.3 and 24.2 and 30.0 and 27.1 and 19.5 and 23.0 and 23.2 and 31.0 and 20.3 and 26.7 and 22.6 and 29.4 and 26.5 and 21.4 and 33.2 and 15.4
- RIGHT PLICOMETRY 2/3 T15 [6]: 35.7 and 28.5 and 25.2 and 30.8 and 19.4 and 27.7 and 35.3 and 24.8 (2×) and 33.4 and 34.0 and 32.0 and 27.3 (2×) and 23.0 and 29.6 and 20.9 and 31.5 and 32.2 and 27.8 and 25.3 and 38.1 and 40.0 and 37.3 and 27.0
- RIGHT PLICOMETRY 3/3 T15 [6]: 40.0 (2×) and 24.9 and 31.7 and 28.9 (2×) and 32.8 and 37.5 and 39.6 and 39.8 and 37.8 and 35.9 and 28.2 and 28.4 and 26.1 and 32.0 and 38.9 and 21.3 and 37.0 and 18.8 and 34.1 and 41.6 and 21.9 and 34.9 and 25.8
- LEFT PLICOMETRY 1/3 T30 [7]: 21.0 and 15.5 and 33.6 and 22.6 and 18.8 and 23.6 and 17.5 and 24.4 and 23.7 and 28.8 and 24.3 and 17.4 and 20.6 and 22.3 and 30.5 and 23.5 and 20.2 and 25.8 and 23.8 and 28.5 and 25.6 and 21.6 and 32.3 and 14.5 and 28.2
- LEFT PLICOMETRY 2/3 T30 [7]: 26.4 and 20.3 and 36.5 and 22.5 and 24.8 and 26.6 and 25.8 and 38.6 and 31.6 and 28.5 and 25.3 and 22.0 and 25.5 and 18.3 and 29.5 and 27.6 and 20.6 and 24.9 and 23.0 (2×) and 33.5 and 37.4 and 39.3 and 21.2 and 30.2
- LEFT PLICOMETRY 3/3 T30 [7]: 32.8 and 19.7 and 35.8 and 25.7 and 28.7 and 31.2 and 24.7 and 39.5 and 26.0 and 33.8 (2×) and 33.2 and 18.5 (2×) and 31.4 (2×) and 18.2 and 35.1 and 15.7 and 32.0 and 39.4 and 20.8 and 38.8 and 26.8 and 36.0
- RIGHT PLICOMETRY 1/3 T30 [7]: 28.2 and 18.9 and 15.5 and 33.2 and 22.4 and 18.8 and 23.6 and 17.5 and 24.4 and 24.2 and 28.8 and 26.5 and 17.4 and 22.7 and 21.8 and 31.2 and 22.6 and 20.5 (2×) and 25.8 and 21.7 and 27.6 and 24.3 and 32.5 and 14.5
- RIGHT PLICOMETRY 2/3 T30 [7]: 34.6 and 28.2 and 24.0 and 30.2 and 18.2 and 25.4 (2×) and 34.0 and 23.7 and 33.5 and 32.9 and 30.0 and 27.6 and 21.7 and 26.5 and 20.0 and 30.8 and 31.0 and 23.9 and 22.3 and 38.1 and 40.0 and 26.2 and 35.6 and 24.3
- RIGHT PLICOMETRY 3/3 T30 [7]: 40.2 and 39.9 and 23.6 and 30.4 and 27.6 (2×) and 31.5 and 36.9 and 38.4 and 38.5 and 36.2 and 33.6 and 26.3 and 26.5 and 23.7 and 31.2 and 37.6 and 19.6 and 36.4 and 17.5 and 30.5 and 39.8 and 20.4 and 34.0 and 25.6
- LEFT PLICOMETRY 1/3 T60 [8]: 20.5 and 15.0 and 30.9 and 22.1 (2×) and 18.3 and 23.1 and 17.0 and 23.9 (2×) and 23.2 and 27.6 and 23.6 and 16.5 and 18.4 and 21.2 and 30.5 and 19.8 and 25.3 and 20.7 and 26.2 and 21.5 and 30.4 and 14.0 and 27.7
- LEFT PLICOMETRY 2/3 T60 [8]: 25.7 and 19.6 and 35.8 and 21.8 and 24.1 and 25.9 and 25.1 and 37.9 and 30.9 and 27.8 and 24.6 and 21.3 and 24.8 and 17.6 and 28.8 and 26.9 and 19.9 and 24.2 and 22.4 and 32.4 and 36.7 and 22.3 and 38.6 and 20.5 and 29.5
- LEFT PLICOMETRY 3/3 T60 [8]: 31.9 and 18.8 and 34.9 and 24.8 and 27.8 and 30.3 and 23.8 and 38.6 and 25.1 and 33.2 and 32.3 and 17.6 and 29.6 and 17.2 and 30.5 and 32.9 and 18.5 and 34.2 and 14.8 and 31.0 and 38.5 and 19.9 and 37.9 and 25.9 and 35.1
- RIGHT PLICOMETRY 1/3 T60 [8]: 27.5 and 20.5 and 15.0 and 32.1 and 22.0 and 17.8 and 23.0 and 16.7 (2×) and 23.7 and 24.6 and 27.6 and 26.6 and 21.5 and 21.7 and 28.9 and 21.4 and 18.4 and 24.1 and 21.3 and 28.0 and 23.9 and 19.9 and 31.7 and 13.8
- RIGHT PLICOMETRY 2/3 T60 [8]: 34.0 and 26.3 and 23.2 and 29.4 and 17.3 and 26.0 and 32.8 and 23.5 and 33.6 and 32.1 and 30.0 and 26.5 and 20.9 and 26.7 and 20.0 and 27.8 and 29.7 and 25.6 (2×) and 23.9 and 21.8 and 37.7 and 40.0 and 35.3 and 23.8
- RIGHT PLICOMETRY 3/3 T60 [8]: 38.9 and 37.4 (2×) and 22.3 (2×) and 29.4 and 27.0 and 32.1 and 35.2 and 36.8 and 26.9 and 35.6 and 33.2 (2×) and 25.3 and 26.6 and 29.5 and 35.4 and 18.2 and 34.1 and 17.0 and 30.9 and 39.8 and 19.7 and 23.7
